According to publication PMC12814168, “Fast, Bright, and Reversible Fluorescent Labeling of Rhodamine-Binding Proteins” (Journal of the American Chemical Society, 2025):

Columns and labels:
SiR-tag [1] = experiment: Fluorescence emission increase (FI/FI0) of SiR upon binding to SiR-tag; type: biochemical; conditions: 50 nM dye, with vs without 20 μM protein
Protocol: The thermal stability of Rho-tag variants was assessed using nano differential scanning fluorimetry (nanoDSF) on a Prometheus NT48 (NanoTemper Technologies). Protein samples (100 µM in activity buffer) were subjected to a thermal gradient from 20° C to 95° C at 1 °C / min.
The intrinsic fluorescence ratio (350 / 330 nm) of tryptophan / tyrosine residues was monitored, and the melting temperature (TM) was determined as the inflection point of this ratio curve. Each sample was analyzed in technical duplicate (N=2), and results are reported as mean ± standard […]
Fluorescence emission spectra
To evaluate fluorescence turn-on or quenching (F I/FI0), rhodamine dyes (2 – 50 nM) were incubated with or without excess Rho-tag (20 μM) in activity buffer containing 0.5% BSA (w/v).
Measurements were performed in black 384-well plates (Greiner) using the Spark20M microplate reader (Tecan) in technical replicates.
FI/FI0 was defined as the ratio of fluorescence intensity with protein to that without at the emission […]
recorded on the Spark20M microplate reader (Tecan). Following baseline correction, the absorbance was plotted against the dye concentration and the data were fitted linearly. […]
(§1) coefficients were calculated via the Lambert-Beer law (Equation 1).
Absolute quantum yields were determined at room temperature using a Hamamatsu Quantaurus-QY spectrometer (C11347 model). […]

SiR-tag [2] = biological target: T1, SiR-tag; experiment: Fluorescence intensity titration of 20 nM SiR with serial protein dilutions, 50 mM HEPES, 50 mM NaCl, pH 7.3 with BSA, 25 °C, 4 independent measurements.; type: binding; conditions: read-out: K D (SiR), SiR-tag; SD, n = 4
T1 construct: 2 + PROSS8 background combined with P57M/F58Y/R60L and G63N/F64K/D65N/M66H; His10-TEV
Source text: 4 Bioluminescent Rho-tag and far-red SiR-tag. A) Schematic representation of direct excitation (left) or bioluminescence (BRET, right) of Rho-tag/TMR. B) AlphaFold2 (AF2) model of RhoLuc (N-Rho-tag^1‑64-GSG-cpNLuc^67/68-GS-Rho-tag^67‑158-C). cpNLuc^67/68 was inserted into the 64/67 site of Rho-tag. Tertiary structures are represented as colored cartoons and surface. The TMR ligand presented as yellow sticks. 3-Methoxyfurimazine (3MF) was modeled into the structure by aligning a crystal structure of NLuc (PDB-ID7SNT) to the AF model and is represented as blue sticks. pLDDT: 93.88. C) Bioluminescence profile of RhoLuc (dark blue, insertion), NLuc-Rho-tag (light blue, terminal fusion), or NLuc (gray). […] The fluorescence emission spectra were recorded upon the addition of Nano-Glo substrate (Promega 1:1000). BRET ratio (in brackets) is given as I 593/I 459. […] The fluorescence emission spectrum of 50 nM dye was recorded in the presence and absence of 20 μM protein. […]
SGCAA medium was used for induction and cells were grown at 30 °C, 250 rpm for 20 h. […] Samples were filtered through 5 mL round-bottom tubes with cell strainer caps (Falcon) and analyzed directly by FACS. […]
PMT voltages were set based on negative controls (no protein expression). Gates were applied for FSC, SSC, and fluorescence; signals >10³ (bilirubin or rhodamine dyes) were considered positive, background ≤10². […]

Rho-tag = biological target: T2, Rho-tag (Chlorobaculum tepidum, UniProt Q8KFZ1, A66M/D121K/D126E/E36V/E70D/F125Y/F62Y/G107D/G67E/H40T/K51V/M64F/N138A/Q25R/S152V/S33N/S65D/V17Q/V87I); experiment: Fluorescence intensity titration of SiR with serial Rho-tag dilutions, 50 mM HEPES, 50 mM NaCl, pH 7.3 with BSA, 25 °C.; type: binding; conditions: SD, n = 3
T2 construct: gene CT0179; His10-TEV, recombinant from E. coli
T2 sequence (Q8KFZ1 entry or part of it with the stated changes): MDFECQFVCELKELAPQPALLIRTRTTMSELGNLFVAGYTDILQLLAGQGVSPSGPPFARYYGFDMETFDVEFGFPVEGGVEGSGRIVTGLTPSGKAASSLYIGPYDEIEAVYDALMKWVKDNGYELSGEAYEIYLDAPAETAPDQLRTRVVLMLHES
Protocol: electroporation buffer, aliquoted (12 x 50 µL) on ice, and used immediately for electroporation with 1–5 µg DNA precipitated DNA. Cells were transferred to pre-chilled 0.2 cm gap electroporation cuvettes (Bio-Rad), and electroporated using a Gene Pulser Xcell (0.54 kV, 25 µF, infinite resistance, exponential decay). Cells were recovered in 2 mL YPDS at 30 °C, shaking for 1 h and afterwards expanded in 100 mL SDCAA at 30 °C for 2 days.
YSD protein expression, staining and sorting
regions were amplified via KOD PCR reaction using primers containing unique barcodes (NGS adaptor ligation oligos, Eurofins Genomics) analyzed by NGS sequencing (Illumina technology, Eurofins Genomics). The NGS results were analyzed using a custom-build pipeline as described previously. […] Alternatively, plasmid DNA was transformation into E.cloni 10G and single colonies were analyzed by Sanger sequencing (Eurofins). […]
and 1 (fully bound dye). The dissociation constants KD were determined by fitting a single-site […]

[3] = Spectral properties: absolute quantum yield, extinction coefficient, brightness; type: physicochemical
Protocol: Serially fluorophore dilutions (0 – 3 μM) were prepared in activity buffer in presence or absence […]
Measurements were performed in 200 μL volumes in clear-bottom non-binding […]
recorded on the Spark20M microplate reader (Tecan). Following baseline correction, the absorbance was plotted against the dye concentration and the data were fitted linearly. Path […]
as §1
Absolute quantum yields were determined at room temperature using a Hamamatsu Quantaurus-QY spectrometer (C11347 model). Rhodamine dyes (1 μM) were tested with and without excess […]
Samples were prepared in 800 μL glass vials
Quantum yield represent as mean ± standard deviation from three technical replicates. The brightness was thereafter calculated using Equation 5. […]

[4] = with 20 µM Rho-tag (TMR, JF549) or SiR-tag (SiR, JF646)

CN(C)c1ccc2c(c1)[Si](C)(C)c1cc(N(C)C)ccc1C21OC(=O)c2ccccc21 [SiR, silicon rhodamine]
Fluorescence increase FI/FI0 upon binding to SiR-tag (SiR-tag [1]): 13 fold | Kd (SiR-tag [2]): 0.048 µM | Kd (Rho-tag): 6.5 µM | Absolute quantum yield Φ ([3]; HaloTag7-bound): 0.546 ± 0.018 | Brightness ε × Φ ([3]; HaloTag7-bound): 068 ± 1 M-1cm-1 × 103 | Extinction coefficient ε ([3]; HaloTag7-bound): 125 ± 15 M-1cm-1 × 103 | Brightness ε × Φ ([3]; buffer): 067 ± 2 M-1cm-1 × 103 | Extinction coefficient ε ([3]; buffer): 120 ± 22 M-1cm-1 × 103 | Absolute quantum yield Φ ([3]; buffer (unbound dye)): 0.562 ± 0.003 | Absolute quantum yield Φ [3, 4]: 0.649 ± 0.012 | Brightness ε × Φ [3, 4]: 105 ± 1 M-1cm-1 × 103 | Extinction coefficient ε [3, 4]: 162 ± 30 M-1cm-1 × 103
